Laboratory results published in paper PMC8568530, “Inhibition of Vascular Smooth Muscle and Cancer Cell Proliferation by New VEGFR Inhibitors and Their Immunomodulator Effect: Design, Synthesis, and Biological Evaluation” (Oxidative Medicine and Cellular Longevity, 2021).
“Also recorded” adds a separate entry of the source.

Tests used:
[1] = system: vascular smooth muscle cells (VSMCs); experiment: Vascular smooth muscle cell proliferation; assay type: cell-based; settings: 2.5, 5, and 10 μM, 48 h
Procedure: In order to examine its effect on the proliferation of vascular smooth muscle cells (VSMCs), VSMCs were treated with increasing concentrations of compound 7a (2.5, 5, and 10 μM) for 48 h. The cellular proliferation results are illustrated in Figure 9.
VSMCs were isolated and cultured following the reported method (Supplementary data).

TNF-α = TNF-α in HepG-2 supernatant (ELISA); assay type: cell-based, human
Text: (1) Estimation of Human Tumor Necrosis Factor Alpha (TNF-α) in HepG-2 Supernatant. […] Celecoxib, a potent inhibitor of TNF-α-induced cytokine expressions, was used as a positive control. […] Among the tested compounds, compound 7a caused a remarkably significant reduction in TNF-α levels (87%) in comparison to celecoxib (86%).
The levels of TNF-α in cell culture supernatants were estimated by the ELISA technique according to the reported procedure.

caspase-3 = experiment: Active caspase-3 level in HepG-2 cells; assay type: cell-based, human; settings: for Caspase 3 Conc.: HepG-2 cells treated with compound; for Caspase 3 Fold: HepG-2 cells, versus control
Text: (1) Effects on the Levels of Active Caspase-3. A significant mechanism by which anticancer agents can affect cancer cells is apoptosis. Apoptosis is a process of automated cell death. The apoptosis mechanism is typically mediated by a group of proteases called caspases. Caspase-3 is activated in every mammalian cell type provoking the cell to die, considered one of the apoptosis marks.
(1) Effects on the Levels of Active Caspase-3. […] (Supplementary data).

HepG-2 = experiment: MTT antiproliferative assay, HepG-2; assay type: cell-based; settings: Homo sapiens, HepG2, hepatocellular carcinoma HepG-2
Procedure: (§1) The in vitro antiproliferative activities of the newly synthesized compounds were evaluated against a panel of three human tumor cell lines, namely, breast cancer (MCF-7), hepatocellular carcinoma (HepG-2), and colorectal carcinoma (HCT-116) using the standard MTT method. The tested cell lines were selected depending on their VEGF overexpression. Sorafenib, the lead drug, was coassayed as a positive control.
(§2) The antiproliferative activity of the synthesized compounds was evaluated using MTT protocol as described (Supplementary data (available here)).

[2] = system: VEGFR-2 protein expression; experiment: Western blot of VEGFR-2 protein expression; assay type: cell-based, human; settings: HepG-2 cells, 10 h exposure, versus blank
Text: (4) Effect of Compound 7a on VEGFR-2 Protein Expression.

HepG-2 cells [3] = experiment: Annexin V-FITC/PI apoptosis assay; assay type: cell-based, human; settings: HepG-2, IC50 dose (2.17 μM), 24 h
Procedure: (5) Apoptotic Cell Subpopulation Determination. To support the fact that derivative 7a induces apoptosis in the HepG-2 cancer cell line, annexin V-FITC and PI double-staining assay protocol was used. […] This is evidence that the antiproliferative activities are associated with a proapoptotic effect of the tested compound.
(4) Apoptotic Cell Subpopulation Determination. The annexin-V-FITC assay for compound 7a on HepG-2 cells was performed according to the reported procedure (Supplementary data).

MCF-7 = experiment: MTT antiproliferative assay, MCF-7; assay type: cell-based; settings: Homo sapiens, MCF7, breast cancer MCF-7
Procedure: as §1, §2

HepG-2 cells [4] = experiment: Cell cycle analysis by flow cytometry; assay type: cell-based, human; settings: HepG-2, compound at its IC50 concentration
Procedure: (3) Cell Cycle Analysis. For further investigation of the apoptotic capacity of compound 7a, flow cytometric analysis was carried out on the HepG-2 cancer cell line treated with the tested compound at its IC50 concentrations using untreated HepG-2 cancer cells as a negative control. […] Accumulation of cells at the G2-M phase for 7a was estimated to be 46.74% versus 23.11% accumulation for control HepG-2 cells.
(3) Cell Cycle Analysis. According to the method described by Léonce et al., the flow cytometric analysis for compound 7a was performed (Supplementary data).

BAX = BAX level in HepG-2 cells; assay type: cell-based, human; settings: for BAX Conc.: HepG-2 cells treated with compound; for BAX Fold: HepG-2 cells, versus control
Text: (§3) (2) Effects on Bcl-2 Family Proteins. The Bcl-2 family proteins are vital regulators of apoptosis cell death. Members of this family include the proapoptotic factor Bax which promotes cell death and the prosurvival (antiapoptotic) Bcl-2 which suppresses cell death. […] Results are expressed in Table 3.
(§4) (2) Effects on Bcl-2 Family Proteins. […] (Supplementary data).

Bcl-2 = Bcl-2 level in HepG-2 cells; assay type: cell-based, human; settings: for Bcl-2 Conc.: HepG-2 cells treated with compound; for Bcl-2 Fold: HepG-2 cells, versus control
Text: as §3, §4

HCT-116 = experiment: MTT antiproliferative assay, HCT-116; assay type: cell-based; settings: Homo sapiens, colorectal carcinoma HCT-116
Procedure: as §1, §2

VEGFR-2 = VEGFR-2 (Homo sapiens, UniProt P35968); experiment: In vitro VEGFR-2 enzyme inhibition assay; assay type: biochemical; settings: read-out: IC50 against VEGFR-2
Chain of VEGFR-2 (P35968 20-1356): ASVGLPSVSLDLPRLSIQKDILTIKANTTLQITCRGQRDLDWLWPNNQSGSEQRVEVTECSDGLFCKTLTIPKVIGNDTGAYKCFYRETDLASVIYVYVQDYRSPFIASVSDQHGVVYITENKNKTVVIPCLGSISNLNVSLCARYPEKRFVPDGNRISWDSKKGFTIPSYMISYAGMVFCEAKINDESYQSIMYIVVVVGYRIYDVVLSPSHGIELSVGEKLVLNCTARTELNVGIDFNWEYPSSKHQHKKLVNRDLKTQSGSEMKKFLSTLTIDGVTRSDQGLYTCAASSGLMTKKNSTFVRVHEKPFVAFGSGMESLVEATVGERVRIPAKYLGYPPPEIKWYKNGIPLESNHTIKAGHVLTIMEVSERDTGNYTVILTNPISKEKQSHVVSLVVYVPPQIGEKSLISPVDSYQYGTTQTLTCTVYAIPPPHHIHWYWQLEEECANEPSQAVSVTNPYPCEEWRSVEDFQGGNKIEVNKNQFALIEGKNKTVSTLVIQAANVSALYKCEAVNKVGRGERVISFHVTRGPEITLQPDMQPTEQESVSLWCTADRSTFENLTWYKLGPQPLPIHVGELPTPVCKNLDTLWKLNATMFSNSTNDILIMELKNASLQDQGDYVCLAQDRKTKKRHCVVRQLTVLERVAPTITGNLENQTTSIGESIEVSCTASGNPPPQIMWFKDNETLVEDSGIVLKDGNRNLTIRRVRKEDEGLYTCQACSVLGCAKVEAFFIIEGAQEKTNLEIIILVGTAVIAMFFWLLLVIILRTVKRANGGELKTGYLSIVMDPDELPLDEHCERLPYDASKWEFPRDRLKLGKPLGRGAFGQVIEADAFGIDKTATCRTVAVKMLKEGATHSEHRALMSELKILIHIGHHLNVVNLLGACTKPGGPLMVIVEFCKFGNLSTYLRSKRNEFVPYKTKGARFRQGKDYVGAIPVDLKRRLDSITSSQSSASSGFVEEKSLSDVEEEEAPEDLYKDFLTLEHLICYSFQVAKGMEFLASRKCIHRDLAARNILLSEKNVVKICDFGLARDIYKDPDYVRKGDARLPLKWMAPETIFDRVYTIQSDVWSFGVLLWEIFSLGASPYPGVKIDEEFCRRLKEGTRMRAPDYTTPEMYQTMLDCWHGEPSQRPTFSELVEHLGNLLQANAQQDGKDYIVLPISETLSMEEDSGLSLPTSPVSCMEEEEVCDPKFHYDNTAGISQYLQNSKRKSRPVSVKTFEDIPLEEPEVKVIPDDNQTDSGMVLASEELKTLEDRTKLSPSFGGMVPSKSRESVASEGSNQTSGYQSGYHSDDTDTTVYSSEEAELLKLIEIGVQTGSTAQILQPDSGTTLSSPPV

[5] = system: WI-38 cell line (normal human lung fibroblasts); experiment: MTT cytotoxicity against normal cells WI-38; assay type: cell-based; settings: normal human lung fibroblasts WI-38
Procedure: The cytotoxicity values of the synthesized compounds against the WI-38 cell line (normal human lung fibroblasts) were also evaluated in vitro.
as §2

[6] = system: MCF-7, HepG-2, and HCT-116; experiment: MTT antiproliferative assay, panel of three tumor cell lines (range over lines); assay type: cell-based; settings: Homo sapiens, range over the three cancer cell lines, read-out: cytotoxic IC50, range over MCF-7, HepG-2 and HCT-116
Procedure: as §1, §2

Compound | TNF-α % inhibition (TNF-α) [%] | Caspase 3 Conc. (caspase-3) [pg/mL] | IC50 (HepG-2) [µM] | IC50 (MCF-7) [µM] | BAX Conc. (BAX) [pg/mL] | BAX Fold (BAX) [fold] | Bcl-2 Conc. (Bcl-2) [pg/mL] | Bcl-2 Fold (Bcl-2) [fold] | IC50 (HCT-116) [µM] | IC50 (VEGFR-2) [µM] | IC50 [5] [µM] | IC50 [6] [µM] | melting point [°C] | Caspase 3 Fold (caspase-3) [fold] | further results
COc1cccc(NC(=O)c2ccc(NC(=O)c3cccnc3)cc2)c1 [Compound 7a, N-(4-((3-Methoxyphenyl)carbamoyl)phenyl)nicotinamide] | 87 | 401.15 | 1.05 | 1.37 | 261.4 | 12.11 | 1.25 | 0.23 | 1.46 | 2.17 | 60.8 |  |  |  | effect on VSMC proliferation [1]: potent inhibitory effect; also recorded: significant antiproliferative effect at all concentrations tested; effect on VEGFR-2 protein expression [2]: downregulated the expression of VEGFR-2 protein; early apoptotic population (HepG-2 cells [3]): 7.41%; late apoptotic population (HepG-2 cells [3]): 6.80%; accumulation of cells at the G2-M phase (HepG-2 cells [4]): 46.74%; apoptotic cells at the pre-G1 phase (HepG-2 cells [4]): 10.5%; percentage of cells at G1 (HepG-2 cells [4]): 30.15%; percentage of cells at the S phase (HepG-2 cells [4]): 22.11%
Cc1ccccc1NC(=O)c1ccc(NC(=O)c2cccnc2)cc1 [Compound 7f, N-(4-(o-Tolylcarbamoyl)phenyl)nicotinamide] |  |  | 31.4 | 20.5 |  |  |  |  | 18.3 |  | 157 | 14.1 to 31.4 | 194 to 197 |  | 
Cc1cccc(NC(=O)c2ccc(NC(=O)c3cccnc3)cc2)c1 [Compound 7h, N-(4-(m-Tolylcarbamoyl)phenyl)nicotinamide] |  |  | 14.9 | 19.2 |  |  |  |  | 22.7 |  | 95.1 | 14.1 to 31.4 | 217 to 219 |  | 
Cc1ccc(NC(=O)c2ccc(NC(=O)c3cccnc3)cc2)cc1 [Compound 7j, N-(4-(p-Tolylcarbamoyl)phenyl)nicotinamide] |  |  | 14.1 | 16.8 |  |  |  |  | 15.1 |  | 84.9 | 14.1 to 31.4 | 219 to 222 |  | 
Cc1ccc(NC(=O)c2ccc(NC(=O)c3cccnc3)cc2)c(C)c1 [Compound 7k, N-(4-((2,4-Dimethylphenyl)carbamoyl)phenyl)nicotinamide] |  |  | 20.1 | 17.1 |  |  |  |  | 18.7 |  | 75.3 | 14.1 to 31.4 | 254 to 256 |  | 
O=C(N/N=C/c1ccc([N+](=O)[O-])cc1)c1ccc(NC(=O)c2cccnc2)cc1 [Compound 11c, (E)-N-(4-(2-(4-Nitrobenzylidene)hydrazine-1-carbonyl)phenyl)-nicotinamide] | 31 | 271.41 | 7.31 | 6.29 | 133.2 | 6.17 | 2.81 | 0.52 | 5.72 | 8.09 | 52.3 | 3.47 to 7.31 |  | 5.28 | 
O=C(N/N=C/c1ccccc1Cl)c1ccc(NC(=O)c2cccnc2)cc1 [Compound 11f, (E)-N-(4-(2-(2-Chlorobenzylidene)hydrazine-1-carbonyl)phenyl)-nicotinamide] | 60 | 292.11 | 7.05 | 6.15 | 142.5 | 6.60 | 2.25 | 0.42 | 3.47 | 4.17 | 62.4 | 3.47 to 7.31 |  | 5.68 | 
CN(C)c1ccc(/C=N/NC(=O)c2ccc(NC(=O)c3cccnc3)cc2)cc1 [Compound 11g, (E)-N-(4-(2-(4-(Dimethylamino)benzylidene)hydrazine-1-carbonyl)phenyl)-nicotinamide] | 47 | 324.36 | 6.42 | 5.73 | 160.2 | 7.42 | 2.55 | 0.48 | 4.8 | 6.12 | 70.1 | 3.47 to 7.31 |  | 6.31 | 
O=C(CSc1nnc(-c2cccnc2)o1)Nc1ccc(Cl)cc1 [Compound 18a, N-(4-Chlorophenyl)-2-((5-(pyridin-3-yl)-1,3,4-oxadiazol-2-yl)thio)acetamide] | 45 | 267.64 | 8.29 | 5.81 | 113.5 | 5.26 | 2.63 | 0.49 | 5.13 | 5.23 | 123 |  |  | 5.20 | 
O=C(CSc1nnc(-c2cccnc2)o1)Nc1ccccc1 [Compound 18b, N-Phenyl-2-((5-(pyridin-3-yl)-1,3,4-oxadiazol-2-yl)thio)acetamide] | 54 | 310.75 | 6.11 | 2.67 | 154.4 | 7.15 | 2.51 | 0.47 | 4.19 | 6.57 | 64.3 |  |  | 6.04 | 
